Key:
[1] = system: Hepatotoxicity; assay: Literature-mined compound from Fourches et al multi-species drug-induced liver injury (DILI) dataset, effect in humans; settings: human
[2] = system: Hepatotoxicity; assay: Literature-mined compound from Fourches et al multi-species drug-induced liver injury (DILI) dataset, effect in rodents; settings: rodentia
[3] = system: Hepatotoxicity; assay: Literature-mined compound from Fourches et al multi-species drug-induced liver injury (DILI) dataset, effect in non-rodents

| Structure (SMILES) | Hepatotoxicity [1] | Hepatotoxicity [2] | Hepatotoxicity [3] | Hepatotoxicity ([1]; Liver) | Hepatotoxicity ([2]; Liver) | Hepatotoxicity ([3]; Liver) |
| --- | --- | --- | --- | --- | --- | --- |
| CCCCN1CCCCC1C(=O)Nc1c(C)cccc1C (configuration not stated) [BUPIVACAINE] | no drug-induced liver injury reported | drug-induced liver injury reported | no drug-induced liver injury reported |  |  |  |
| Cc1cc(-c2ccc(/N=N/c3ccc4c(S(=O)(=O)[O-])cc(S(=O)(=O)[O-])c(N)c4c3O)c(C)c2)ccc1/N=N/c1ccc2c(S(=O)(=O)[O-])cc(S(=O)(=O)[O-])c(N)c2c1O.[Na+].[Na+].[Na+].[Na+] [EVANS BLUE] | no drug-induced liver injury reported | drug-induced liver injury reported | no drug-induced liver injury reported |  |  |  |
| COc1ccc(-c2cc(=O)c3c(O)cc(O[C@@H]4O[C@H](CO[C@@H]5O[C@@H](C)[C@H](O)[C@@H](O)[C@H]5O)[C@@H](O)[C@H](O)[C@H]4O)cc3o2)cc1O [DIOSMIN] | no drug-induced liver injury reported | drug-induced liver injury reported | no drug-induced liver injury reported |  |  |  |
| CC1=C(/C=C/C(C)=C/C=C/C(C)=C/C=C/C=C(C)/C=C/C=C(C)/C=C/C2=C(C)CCCC2(C)C)C(C)(C)CCC1 [BETA CAROTENE] | drug-induced liver injury reported | drug-induced liver injury reported | drug-induced liver injury reported |  |  |  |
| CCCc1nn(C)c2c(=O)[nH]c(-c3cc(S(=O)(=O)N4CCN(C)CC4)ccc3OCC)nc12 | drug-induced liver injury reported | no drug-induced liver injury reported | no drug-induced liver injury reported |  |  |  |
| CCn1cc(C(=O)O)c(=O)c2cc(F)c(N3CCNCC3)nc21 [ENOXACIN] | drug-induced liver injury reported | drug-induced liver injury reported | no drug-induced liver injury reported |  |  |  |
| Cc1c(C(=O)NN2CCCCC2)nn(-c2ccc(Cl)cc2Cl)c1-c1ccc(Cl)cc1 [RIMONABANT] | no drug-induced liver injury reported | drug-induced liver injury reported | no drug-induced liver injury reported |  |  |  |
| CO[C@H]1/C=C/O[C@@]2(C)Oc3c(C)c(O)c4c(c3C2=O)C2=NC3(CCN(CC(C)C)CC3)NC2=C(NC(=O)/C(C)=C\C=C\[C@H](C)[C@H](O)[C@@H](C)[C@@H](O)[C@@H](C)[C@H](OC(C)=O)[C@@H]1C)C4=O [RIFABUTIN] |  |  |  | drug-induced liver injury reported | drug-induced liver injury reported | no drug-induced liver injury reported |
| CCCC(=O)Nc1ccc(OCC(O)CNC(C)C)c(C(C)=O)c1 (configuration not stated) [ACEBUTOLOL] | drug-induced liver injury reported | drug-induced liver injury reported | no drug-induced liver injury reported |  |  |  |
| FCOC(C(F)(F)F)C(F)(F)F [SEVOFLURANE] | drug-induced liver injury reported | drug-induced liver injury reported | no drug-induced liver injury reported |  |  |  |
| CCCCc1oc2ccccc2c1C(=O)c1cc(I)c(OCCN(CC)CC)c(I)c1 [AMIODARONE] |  |  |  | drug-induced liver injury reported | drug-induced liver injury reported | drug-induced liver injury reported |
| CC1=NS(=O)(=O)c2cc(Cl)ccc2N1 [DIAZOXIDE] | drug-induced liver injury reported | drug-induced liver injury reported | no drug-induced liver injury reported |  |  |  |
| CC1=CC(=O)c2ccccc2C1=O [MENADIONE] | drug-induced liver injury reported | drug-induced liver injury reported | drug-induced liver injury reported |  |  |  |
| Nc1ccc(C(=O)O)c(O)c1 [AMINOSALICYLIC ACID] | drug-induced liver injury reported | no drug-induced liver injury reported | no drug-induced liver injury reported |  |  |  |

From ChEMBL document CHEMBL1697731, “Cheminformatics analysis of assertions mined from literature that describe drug-induced liver injury in different species” (Chem Res Toxicol, 2010)
